Activity calls are given as the source filed them. The rule behind the calls is not given here.
Columns and labels:
PC-3 = test: Growth inhibition of human PC3 cells after 48 hrs by SRB assay; format: functional; settings: PC-3, 48 h
DU-145 = test: Growth inhibition of human DU145 cells after 48 hrs by SRB assay; format: functional; settings: DU-145, 48 h
MCF7 [1] = test: Growth inhibition of human MCF7 cells after 48 hrs by SRB assay; format: functional; settings: MCF7, 48 h
MDA-MB-231 = test: Growth inhibition of human MDA-MB-231 cells after 48 hrs by SRB assay; format: functional; settings: MDA-MB-231, 48 h
[2] = Growth inhibition of human BT549 cells after 48 hrs by SRB assay; format: functional; settings: BT-549, 48 h
T47D = test: Growth inhibition of human T47D cells after 48 hrs by SRB assay; format: functional
MDA-MB-468 = test: Growth inhibition of human MDA-MB-468 cells after 48 hrs by SRB assay; format: functional; settings: MDA-MB-468, 48 h
[3] = Growth inhibition of human LOXIMVI cells after 48 hrs by SRB assay; format: functional; settings: LOX IMVI
Malme-3M = test: Growth inhibition of human MALME-3M cells after 48 hrs by SRB assay; format: functional
M14 = test: Growth inhibition of human M14 cells after 48 hrs by SRB assay; format: functional; settings: M14, 48 h
MDA-MB-435 = test: Growth inhibition of human MDA-MB-435 cells after 48 hrs by SRB assay; format: functional; settings: MDA-MB-435, 48 h
SK-MEL-2 = test: Growth inhibition of human SK-MEL-2 cells after 48 hrs by SRB assay; format: functional; settings: SK-MEL-2, 48 h
SK-MEL-5 = test: Growth inhibition of human SK-MEL-5 cells after 48 hrs by SRB assay; format: functional; settings: SK-MEL-5, 48 h
[4] = Growth inhibition of human UACC62 cells after 48 hrs by SRB assay; format: functional; settings: UACC-62, 48 h
[5] = Growth inhibition of human UACC257 cells after 48 hrs by SRB assay; format: functional; settings: UACC-257, 48 h
MCF7 [6] = test: Growth inhibition of human MCF7 cells assessed as cell viability at 4 uM after 24 hrs by MTT assay; format: functional, cell-based
MCF7 [7] = test: Cell cycle arrest in human MCF7 cells assessed as accumulation at G0/G1 phase at 4 uM after 24 hrs by propidium iodide staining-based flow cytometry (reference value: 64.04%); format: functional
MCF7 [8] = test: Cell cycle arrest in human MCF7 cells assessed as accumulation at S phase at 4 uM after 24 hrs by propidium iodide staining-based flow cytometry (reference value: 20.17%); format: functional
MCF7 [9] = test: Cell cycle arrest in human MCF7 cells assessed as accumulation at G2/M phase at 4 uM after 24 hrs by propidium iodide staining-based flow cytometry (reference value: 15.79%); format: functional
CCRF-CEM = test: Growth inhibition of human CCRF-CEM cells after 48 hrs by SRB assay; format: functional
HL-60(TB) = test: Growth inhibition of human HL-60(TB) cells after 48 hrs by SRB assay; format: functional; settings: HL-60, 48 h
K562 = test: Growth inhibition of human K562 cells after 48 hrs by SRB assay; format: functional; settings: K562, 48 h
[10] = Growth inhibition of human MOLT4 cells after 48 hrs by SRB assay; format: functional; settings: MOLT-4, 48 h
SR = test: Growth inhibition of human SR cells after 48 hrs by SRB assay; format: functional
RPMI-8226 = test: Growth inhibition of human RPMI8226 cells after 48 hrs by SRB assay; format: functional; settings: RPMI-8226, 48 h
A549 = test: Growth inhibition of human A549 cells after 48 hrs by SRB assay; format: functional; settings: A549, 48 h
[11] = Growth inhibition of human EKVX cells after 48 hrs by SRB assay; format: functional
HOP-62 = test: Growth inhibition of human HOP62 cells after 48 hrs by SRB assay; format: functional; settings: HOP-62, 48 h
[12] = Growth inhibition of human HOP92 cells after 48 hrs by SRB assay; format: functional; settings: HOP-92, 48 h
NCI-H226 = test: Growth inhibition of human NCI-H226 cells after 48 hrs by SRB assay; format: functional; settings: NCI-H226, 48 h
NCI-H23 = test: Growth inhibition of human NCI-H23 cells after 48 hrs by SRB assay; format: functional; settings: NCI-H23, 48 h
NCI-H322M = test: Growth inhibition of human NCI-H322M cells after 48 hrs by SRB assay; format: functional
NCI-H460 = test: Growth inhibition of human NCI-H460 cells after 48 hrs by SRB assay; format: functional; settings: NCI-H460, 48 h
NCI-H522 = test: Growth inhibition of human NCI-H522 cells after 48 hrs by SRB assay; format: functional; settings: NCI-H522, 48 h
COLO 205 = test: Growth inhibition of human COLO205 cells after 48 hrs by SRB assay; format: functional; settings: COLO 205, 48 h
[13] = Growth inhibition of human HCC2998 cells after 48 hrs by SRB assay; format: functional; settings: HCC 2998, 48 h
HCT-116 = test: Growth inhibition of human HCT116 cells after 48 hrs by SRB assay; format: functional; settings: HCT-116, 48 h
[14] = Growth inhibition of human HCT15 cells after 48 hrs by SRB assay; format: functional; settings: HCT-15, 48 h
HT-29 = test: Growth inhibition of human HT-29 cells after 48 hrs by SRB assay; format: functional; settings: HT-29, 48 h
KM12 = test: Growth inhibition of human KM12 cells after 48 hrs by SRB assay; format: functional; settings: KM12, 48 h
SF-268 = test: Growth inhibition of human SF268 cells after 48 hrs by SRB assay; format: functional; settings: SF-268, 48 h
[15] = Growth inhibition of human SF295 cells after 48 hrs by SRB assay; format: functional; settings: SF-295, 48 h
[16] = Growth inhibition of human SF539 cells after 48 hrs by SRB assay; format: functional; settings: SF-539, 48 h
SNB-19 = test: Growth inhibition of human SNB19 cells after 48 hrs by SRB assay; format: functional; settings: SNB-19, 48 h
SNB-75 = test: Growth inhibition of human SNB75 cells after 48 hrs by SRB assay; format: functional; settings: SNB-75, 48 h
U-251 = test: Growth inhibition of human U251 cells after 48 hrs by SRB assay; format: functional; settings: U-251, 48 h
IGROV-1 = test: Growth inhibition of human IGROV1 cells after 48 hrs by SRB assay; format: functional; settings: IGROV-1, 48 h
[17] = Growth inhibition of human OVCAR3 cells after 48 hrs by SRB assay; format: functional; settings: OVCAR-3, 48 h
[18] = Growth inhibition of human OVCAR4 cells after 48 hrs by SRB assay; format: functional; settings: OVCAR-4, 48 h
[19] = Growth inhibition of human OVCAR5 cells after 48 hrs by SRB assay; format: functional; settings: OVCAR-5, 48 h
[20] = Growth inhibition of human OVCAR8 cells after 48 hrs by SRB assay; format: functional; settings: OVCAR-8, 48 h
[21] = Growth inhibition of human NCI-ADR-RES cells after 48 hrs by SRB assay; format: functional
SK-OV-3 = test: Growth inhibition of human SKOV3 cells after 48 hrs by SRB assay; format: functional; settings: SK-OV-3, 48 h
786-0 = test: Growth inhibition of human 786-0 cells after 48 hrs by SRB assay; format: functional; settings: 786-0, 48 h
A498 = test: Growth inhibition of human A498 cells after 48 hrs by SRB assay; format: functional; settings: A498, 48 h
ACHN = test: Growth inhibition of human ACHN cells after 48 hrs by SRB assay; format: functional
CAKI-1 = test: Growth inhibition of human Caki1 cells after 48 hrs by SRB assay; format: functional; settings: CAKI-1, 48 h
SN12C = test: Growth inhibition of human SN12C cells after 48 hrs by SRB assay; format: functional
TK-10 = test: Growth inhibition of human TK10 cells after 48 hrs by SRB assay; format: functional; settings: TK-10, 48 h
[22] = Growth inhibition of human UO31 cells after 48 hrs by SRB assay; format: functional; settings: UO-31, 48 h

COc1cc(C(=O)/C=C/c2c(-c3cccs3)nc3ccccn23)cc(OC)c1OC
GI50 (PC-3): 2630 nM
GI50 (DU-145): 1900 nM
GI50 (MCF7 [1]): 1120 nM
GI50 (MDA-MB-231): 3080 nM
GI50 [2]: 1860 nM
GI50 (T47D): 1720 nM
GI50 (MDA-MB-468): 1720 nM
GI50 [3]: 1870 nM
GI50 (Malme-3M): 3650 nM
GI50 (M14): 2080 nM
GI50 (MDA-MB-435): 2490 nM
GI50 (SK-MEL-2): 2270 nM
GI50 (SK-MEL-5): 1330 nM
GI50 [4]: 1610 nM
GI50 [5]: 1880 nM
inhibition (MCF7 [6]): Active
Activity (MCF7 [7]): 92.41%
Activity (MCF7 [8]): 6.48%
Activity (MCF7 [9]): 1.11%
GI50 (CCRF-CEM): 1660 nM
GI50 (HL-60(TB)): 2010 nM
GI50 (K562): 1510 nM
GI50 [10]: 1770 nM
GI50 (SR): 1230 nM
GI50 (RPMI-8226): 1340 nM
GI50 (A549): 2040 nM
GI50 [11]: 3120 nM
GI50 (HOP-62): 2880 nM
GI50 [12]: 280 nM
GI50 (NCI-H226): 2040 nM
GI50 (NCI-H23): 2200 nM
GI50 (NCI-H322M): 3020 nM
GI50 (NCI-H460): 1420 nM
GI50 (NCI-H522): 1100 nM
GI50 (COLO 205): 1770 nM
GI50 [13]: 1960 nM
GI50 (HCT-116): 1630 nM
GI50 [14]: 1600 nM
GI50 (HT-29): 2090 nM
GI50 (KM12): 1320 nM
GI50 (SF-268): 2370 nM
GI50 [15]: 2240 nM
GI50 [16]: 1870 nM
GI50 (SNB-19): 2100 nM
GI50 (SNB-75): 2680 nM
GI50 (U-251): 1660 nM
GI50 (IGROV-1): 1890 nM
GI50 [17]: 2440 nM
GI50 [18]: 3130 nM
GI50 [19]: 2640 nM
GI50 [20]: 1680 nM
GI50 [21]: 1890 nM
GI50 (SK-OV-3): 3010 nM
GI50 (786-0): 2310 nM
GI50 (A498): 980 nM
GI50 (ACHN): 2090 nM
GI50 (CAKI-1): 2310 nM
GI50 (SN12C): 2440 nM
GI50 (TK-10): 3780 nM
GI50 [22]: 1070 nM

COc1ccc(/C=C/C(=O)c2cc(OC)c(OC)c(OC)c2)cc1O
inhibition (MCF7 [6]): Active

From ChEMBL document CHEMBL3217491, “Design, synthesis and biological evaluation of imidazopyridine/pyrimidine-chalcone derivatives as potential anticancer agents” (2010)
